The nature of series [1]: Study 1: pulmonary delivery by nebulizer and facemask, plasma propofol and sedation. The following applies: one male beagle dog, inhalation of 3 mL of 250 mg/mL aqueous solution over approximately 10 min. Type of series: in vivo. As to the method: (§1) A preliminary study was conducted to assess the conversion of O-phosphonooxymethyl propofol disodium salt to the pharmacologically active drug propofol following pulmonary delivery. A male beagle dog was fasted overnight prior to the study. O-phosphonooxymethyl propofol disodium salt was dissolved in water (250 mg/mL). 3-mL of the O-phosphonooxymethyl propofol disodium salt solution was delivered over approximately 10 min to the dog via inhalation through a nebulizer connected to a facemask that was placed over the dog's muzzle. The actual dose of O-phosphonooxymethyl propofol disodium salt delivered to the dog is less than the dose nebulized due to vapor loss during exhalation. Two mL blood samples were collected via a catheter placed in the cephalic vein prior to the study. Samples were collected for 1.5 hours post-dose at 5, 10, 20, 30, 40, 50, 60 and 90 minutes after initiation of delivery by inhalation. The concentration of propofol in the blood samples was determined using HPLC with fluorescence detection.
These finding are significant, as it is known that humans are more susceptible to the affects of propofol than dogs. Therefore, the onset of action would be very rapid in humans.

A short description of series [2]: Study 2: pulmonary delivery by nebulizer for a defined time (10 min), plasma propofol and sedation. The following applies: three male beagle dogs, 250 mg/mL aqueous solution nebulized for 10 min. Type of series: in vivo. As to the method:
as §1, with “A second” for “A preliminary”, “delivery. The study design was essentially the same as Study 1 above except that the O-phosphonooxymethyl propofol disodium salt solution was nebulized for a defined period of time (10 min) instead of to complete nebulization of the solution. Three” for “delivery. A”, “beagle dogs” for “beagle dog”, “mg/mL). The” for “mg/mL). 3-mL of the”, “delivered for” for “delivered over approximately”
These finding are significant, as it is known that humans are more susceptible to the effects of propofol than dogs. […]

Where [3] appears, read: sample at 5 minutes post dose initiation, HPLC with fluorescence detection.

For the compound `CC(C)c1cccc(C(C)C)c1OCOP(=O)([O-])[O-].[Na+].[Na+]` [O-phosphonooxymethyl propofol disodium salt], the “signs of sedation, time after the completion of the inhaled dose” value is “approximately 15 minutes” in series [1] and 10 to 15 min in series [2]. The “concentration of propofol in the plasma, first blood sample” value in series [1] (setting [3]) and in series [2] (setting [3]) was “significant concentration of propofol in the plasma” in each case.

Source of the values: US20090098209A1, “PHARMACEUTICAL CO[…]-SOLUBLE DERIVATIVES OF PROPOFOL AND METHODS OF ADMINISTERING SAME VIA PULMONARY ADMINISTRATION” (UNIVERSITY OF KANSAS, priority 2007, published 2009).
